From ChEMBL document CHEMBL1201862, “PubChem BioAssay data set” (2004)
Active and inactive are the calls of the source.

How the values were obtained:
[1] = tested on: Streptococcus sp. 'group A'; assay: growth inhibition of control SK(-) GAS strain, dose response, counter-screen for streptokinase expression inhibitor project, luminescence, kanamycin, BacTiterGlo, confirmation (AID 1900); type: functional, organism-based
Streptokinase A = target: T1, Streptokinase A (Streptococcus pyogenes serotype M1, UniProt P10520); assay: S. pyogenes streptokinase expression inhibitors, potency, dose response, plasminogen activation absorbance, OD405 (AID 1914); type: functional, Streptococcus pyogenes M1 GAS;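 further: secreted streptokinase activity via plasminogen activation per viability signal from cell pellet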
T1 sequence (P10520 whole entry): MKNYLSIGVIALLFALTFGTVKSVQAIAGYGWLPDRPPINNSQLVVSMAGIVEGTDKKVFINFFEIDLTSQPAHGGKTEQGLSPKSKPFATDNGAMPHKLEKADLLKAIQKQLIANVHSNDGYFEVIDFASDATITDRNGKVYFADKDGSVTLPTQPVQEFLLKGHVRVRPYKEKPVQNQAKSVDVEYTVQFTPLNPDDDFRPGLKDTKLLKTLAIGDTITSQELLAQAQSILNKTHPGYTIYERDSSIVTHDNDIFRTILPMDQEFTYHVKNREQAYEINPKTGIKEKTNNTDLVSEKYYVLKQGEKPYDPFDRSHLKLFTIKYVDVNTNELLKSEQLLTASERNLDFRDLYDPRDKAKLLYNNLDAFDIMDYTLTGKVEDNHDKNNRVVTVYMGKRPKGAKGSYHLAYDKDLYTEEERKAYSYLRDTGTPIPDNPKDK

Streptococcus = assay: Group A Streptococcus viability loss, dose response, counter-screen for streptokinase expression inhibitor project, luminescence, BacTiterGlo (AID 1915); type: functional, organism-based;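 further: potency for reduction of bacterial viability or growth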
Cytochrome P450 2D6 = Cytochrome P450 2D6 (Homo sapiens, UniProt P10635);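 further: CYP2D6 member of a cytochrome P450 panel assay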
Cytochrome P450 1A2 = target: T2, Cytochrome P450 1A2 (Homo sapiens, UniProt P05177);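 further: PubChem cytochrome P450 panel assay, CYP1A2 panel member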
T2 sequence (P05177 whole entry): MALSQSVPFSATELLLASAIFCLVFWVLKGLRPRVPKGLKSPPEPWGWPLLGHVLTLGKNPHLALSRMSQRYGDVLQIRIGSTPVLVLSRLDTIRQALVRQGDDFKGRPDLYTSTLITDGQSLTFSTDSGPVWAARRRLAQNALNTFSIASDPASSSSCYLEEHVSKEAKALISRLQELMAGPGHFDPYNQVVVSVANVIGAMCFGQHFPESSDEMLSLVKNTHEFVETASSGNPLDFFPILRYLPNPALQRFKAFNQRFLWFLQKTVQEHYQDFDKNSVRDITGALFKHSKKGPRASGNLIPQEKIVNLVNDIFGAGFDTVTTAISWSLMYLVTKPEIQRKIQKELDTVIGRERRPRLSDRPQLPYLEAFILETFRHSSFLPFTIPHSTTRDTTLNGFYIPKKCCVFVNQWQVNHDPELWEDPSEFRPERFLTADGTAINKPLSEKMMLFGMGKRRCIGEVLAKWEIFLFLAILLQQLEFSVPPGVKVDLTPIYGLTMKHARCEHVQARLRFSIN

Cytochrome P450 3A4 = Cytochrome P450 3A4 (Homo sapiens, UniProt P08684);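 further: CYP3A4 tested as one member of a cytochrome P450 panel screen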
Cytochrome P450 2C19 = Cytochrome P450 2C19 (Homo sapiens, UniProt P33261); assay: Cytochrome panel assay with activity outcomes. Panel member name: p450-cyp2c19 Compounds with AC50 equal or less than 10 uM are considered active; type: functional; settings: read-out: AC50
[2] = target: T3, Rac GTPase-activating protein 1 (Homo sapiens, UniProt Q9H0H5); assay: MgcRacGAP GTPase-activating activity inhibitors, confirmation, biochemical, ADP Hunter fluorescence, primary and confirmatory (AID 624330); type: functional
T3 sequence (Q9H0H5 whole entry): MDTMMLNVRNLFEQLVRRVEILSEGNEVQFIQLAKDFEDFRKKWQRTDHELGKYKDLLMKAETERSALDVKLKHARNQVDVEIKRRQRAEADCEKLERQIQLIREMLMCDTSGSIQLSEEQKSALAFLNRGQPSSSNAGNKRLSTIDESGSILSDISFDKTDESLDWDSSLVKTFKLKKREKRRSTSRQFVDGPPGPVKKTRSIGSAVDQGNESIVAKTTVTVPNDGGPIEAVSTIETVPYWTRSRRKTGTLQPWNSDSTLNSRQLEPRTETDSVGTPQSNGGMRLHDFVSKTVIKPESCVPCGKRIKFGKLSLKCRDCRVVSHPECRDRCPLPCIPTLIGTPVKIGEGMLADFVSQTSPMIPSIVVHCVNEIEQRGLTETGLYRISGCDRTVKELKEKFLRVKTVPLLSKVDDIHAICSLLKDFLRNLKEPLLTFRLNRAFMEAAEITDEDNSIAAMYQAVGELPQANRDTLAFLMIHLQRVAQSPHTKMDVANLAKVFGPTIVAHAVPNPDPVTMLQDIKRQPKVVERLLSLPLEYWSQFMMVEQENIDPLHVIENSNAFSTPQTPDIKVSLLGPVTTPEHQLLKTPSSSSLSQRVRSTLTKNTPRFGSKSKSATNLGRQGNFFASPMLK

Cytochrome P450 3A4, sequence (P08684 whole entry): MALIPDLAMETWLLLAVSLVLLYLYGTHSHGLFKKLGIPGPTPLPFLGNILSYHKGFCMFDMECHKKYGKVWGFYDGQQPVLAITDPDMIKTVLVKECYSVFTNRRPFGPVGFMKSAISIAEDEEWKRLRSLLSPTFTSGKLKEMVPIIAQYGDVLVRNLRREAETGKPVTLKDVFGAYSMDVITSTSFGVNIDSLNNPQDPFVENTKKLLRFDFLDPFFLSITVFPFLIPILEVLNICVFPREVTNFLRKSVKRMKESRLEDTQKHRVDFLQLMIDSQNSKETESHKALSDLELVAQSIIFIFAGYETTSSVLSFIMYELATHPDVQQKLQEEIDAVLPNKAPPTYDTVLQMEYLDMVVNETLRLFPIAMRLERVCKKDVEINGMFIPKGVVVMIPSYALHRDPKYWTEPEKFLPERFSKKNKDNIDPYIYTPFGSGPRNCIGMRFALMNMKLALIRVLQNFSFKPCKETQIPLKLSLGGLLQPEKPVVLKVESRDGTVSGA
Cytochrome P450 2D6, sequence (P10635 whole entry): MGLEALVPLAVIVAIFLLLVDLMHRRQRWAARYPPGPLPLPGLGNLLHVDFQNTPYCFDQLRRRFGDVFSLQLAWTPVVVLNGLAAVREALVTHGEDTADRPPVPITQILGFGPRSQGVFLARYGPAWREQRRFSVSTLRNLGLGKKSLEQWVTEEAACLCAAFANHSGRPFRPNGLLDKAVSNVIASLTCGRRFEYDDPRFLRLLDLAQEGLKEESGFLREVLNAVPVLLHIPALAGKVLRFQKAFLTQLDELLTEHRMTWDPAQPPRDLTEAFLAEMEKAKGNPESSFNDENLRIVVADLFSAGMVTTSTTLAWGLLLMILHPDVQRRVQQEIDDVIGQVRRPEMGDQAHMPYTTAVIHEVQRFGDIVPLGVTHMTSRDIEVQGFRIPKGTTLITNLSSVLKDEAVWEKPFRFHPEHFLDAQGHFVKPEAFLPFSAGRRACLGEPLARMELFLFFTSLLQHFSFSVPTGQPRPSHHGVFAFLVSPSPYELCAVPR
Cytochrome P450 2C19, sequence (P33261 whole entry): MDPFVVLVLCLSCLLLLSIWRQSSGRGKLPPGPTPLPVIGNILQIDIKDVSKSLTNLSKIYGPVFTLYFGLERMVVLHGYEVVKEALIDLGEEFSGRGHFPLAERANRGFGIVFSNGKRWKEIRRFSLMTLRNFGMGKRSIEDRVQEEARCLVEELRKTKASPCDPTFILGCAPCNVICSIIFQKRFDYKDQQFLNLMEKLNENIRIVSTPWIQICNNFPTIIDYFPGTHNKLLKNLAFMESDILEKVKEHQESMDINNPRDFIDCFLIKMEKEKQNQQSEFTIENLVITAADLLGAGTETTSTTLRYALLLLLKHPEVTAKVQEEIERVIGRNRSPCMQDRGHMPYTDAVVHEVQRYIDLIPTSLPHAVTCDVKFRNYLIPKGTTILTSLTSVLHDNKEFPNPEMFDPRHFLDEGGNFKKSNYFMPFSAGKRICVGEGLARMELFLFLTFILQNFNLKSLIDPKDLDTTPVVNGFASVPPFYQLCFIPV

## O=C(NC(=S)Nc1ccc(N2CCOCC2)c(Cl)c1)c1cccs1
[1]
  EC50: 11 µM (active)
Streptokinase A
  EC50: > 150 µM (not active)
Streptococcus
  EC50: 15.8 µM (active)

## COc1ccc(/C=C2\Sc3ccc(C(=O)N4CCCC4)cc3N(C)C2=O)cc1OC
[1]
  EC50: 0.555 µM (active)
Streptokinase A
  EC50: > 150 µM (not active)
Streptococcus
  EC50: 8.27 µM (active)

## COC(=O)c1ccccc1NS(=O)(=O)c1ccc2c3c(cccc13)C(=O)N2
Cytochrome P450 2D6
  AC50: 28.2 µM (inconclusive)
Cytochrome P450 1A2
  AC50: 15.8 µM (inconclusive)
Cytochrome P450 3A4
  AC50: 12.6 µM (inconclusive)

## CCCCN1C(=O)NC(=O)/C(=C(\C)Nc2ccc(OCC)cc2)C1=O
[1]
  EC50: 8.66 µM (active)
Streptokinase A
  EC50: > 150 µM (not active)
Streptococcus
  EC50: 21.5 µM (active)

## O=S(=O)(Nc1ccc(N=Nc2ccc(O)c3ccccc23)cc1)c1ccccc1
[1]
  EC50: 7.71 µM (active)
Streptokinase A
  EC50: 18.7 µM (active)
Streptococcus
  EC50: 41.5 µM (active)

## CCOc1ccc(Nc2nc(N3CCCCC3)nc(N3CCCCC3)n2)cc1
[1]
  EC50: 0.648 µM (active)
Streptokinase A
  EC50: > 150 µM (not active)
Streptococcus
  EC50: 54.1 µM (active)

## CCOC(=O)C1CCCN(c2ncnc3c2cnn3-c2cccc(C)c2)C1 (stereo unspecified)
Cytochrome P450 2C19
  AC50: 20 µM (inconclusive)
Cytochrome P450 3A4
  AC50: 28.2 µM (inconclusive)

## COc1ccc(-c2ccc(C(=S)N3CCN(C(C)=O)CC3)o2)cc1
Cytochrome P450 2D6
  AC50: 28.2 µM (inconclusive)

## c1ccc(CN2CCN(c3nc4ccccc4c4ccccc34)CC2)cc1
[1]
  EC50: 15.9 µM (active)
Streptokinase A
  EC50: 14.9 µM (active)
Streptococcus
  EC50: > 150 µM (not active)

## CC(C)(C)c1ccc(C(=O)NCc2ccc(Cl)cc2)cc1
Cytochrome P450 1A2
  AC50: 2 µM (inconclusive)

## Oc1ccc(Cc2cc(Cl)cc(Cl)c2O)cc1Cl
Cytochrome P450 2D6
  AC50: 7.94 µM (inconclusive)
Cytochrome P450 3A4
  AC50: 3.98 µM (inconclusive)

## COC(=O)[C@H](C)[C@@H]1C[C@@]1(C)[C@@H](NC(=O)OCc1ccccc1)c1ccccc1
Cytochrome P450 1A2
  AC50: 15.8 µM (inconclusive)

## C=CCNC(=O)c1ccccc1NC(=O)c1ccc(Cl)c(S(=O)(=O)Nc2cc(C)ccc2C)c1
[1]
  EC50: 24.8 µM (active)
Streptokinase A
  EC50: 41.7 µM (active)
Streptococcus
  EC50: > 150 µM (not active)

## O=[N+]([O-])c1cc([N+](=O)[O-])c2nonc2c1Nc1ccccc1O
[2]
  IC50: 76.9 µM (active)

## CN(C)c1ccc(-c2cncnc2NCc2ccccc2)cc1
Cytochrome P450 2D6
  AC50: 39.8 µM (inconclusive)

## COc1ccc(C(CNC(=O)c2cccc(S(=O)(=O)Nc3ccccc3Cl)c2)N2CCOCC2)cc1 (stereo unspecified)
Streptokinase A
  EC50: > 150 µM (not active)
Streptococcus
  EC50: 104 µM (active)

## COc1cc(NC(=O)c2ccccc2)c(OC)cc1NC(=O)CN1CCN(c2ccccn2)CC1
Cytochrome P450 1A2
  AC50: 25.1 µM (inconclusive)
Cytochrome P450 3A4
  AC50: 12.6 µM (inconclusive)

## CCC/C=C(\CCC)C(NS(=O)(=O)c1cccc2cccnc12)c1ccc(C(=O)OC)cc1 (stereo unspecified)
Cytochrome P450 1A2
  AC50: 6.31 µM (inconclusive)

## O=C(CSc1ccc2ccccc2n1)N/N=C/c1ccc(O)cc1
[2]
  IC50: 73.2 µM (active)

## CCSC(=N)Nc1ccc(C(F)(F)F)cc1
Cytochrome P450 2C19
  AC50: 20 µM (inconclusive)
Cytochrome P450 3A4
  AC50: 39.8 µM (inconclusive)

## CCO[C@H]1O[C@@H]([C@H](COCc2ccccc2)OCc2ccccc2)[C@@H](OCc2ccccc2)[C@H]1O
Cytochrome P450 2C19
  AC50: 5.01 µM (inconclusive)
Cytochrome P450 2D6
  AC50: 15.8 µM (inconclusive)
Cytochrome P450 1A2
  AC50: 12.6 µM (inconclusive)

## COc1ccccc1CNc1ncncc1-c1ccc(C(=O)N(C)C)cc1
Cytochrome P450 2D6
  AC50: 39.8 µM (inconclusive)

## Cc1cc(Cc2cc(C)c(N)cc2N)c(N)cc1N
Cytochrome P450 1A2
  AC50: 2 µM (inconclusive)

## CCOc1cc(CN2CCN(C(=O)CC(C)C)CC2)ccc1OC
[2]
  IC50: 155 µM (active)

## C=C(C)CNC(=S)NNC(=O)CCn1c2ccc(Cl)cc2c2cc(Cl)ccc21
Streptokinase A
  EC50: > 150 µM (not active)

## COC(=O)[C@@]1(Cc2ccc(F)cc2)[C@H]2c3cc(C(=O)N4CCCC4)n(Cc4ccc(S(C)(=O)=O)cc4)c3C[C@H]2CN1C(=O)c1ccccc1
Cytochrome P450 1A2
  AC50: 15.8 µM (inconclusive)
Cytochrome P450 3A4
  AC50: 1.26 µM (inconclusive)

## CC(=O)Nc1nnc(S)s1
[2]
  IC50: 66.2 µM (active)

## Cn1c(=O)c(C(=O)NNC(=O)c2ccccc2Br)c(O)c2ccccc21
[1]
  EC50: 4.72 µM (active)
Streptokinase A
  EC50: > 150 µM (not active)
Streptococcus
  EC50: 18.7 µM (active)

## COc1cc(/C=C/C(=O)OCC(=O)N2CCN(S(=O)(=O)c3ccc(C)cc3C)CC2)ccc1O
[2]
  IC50: 88.2 µM (active)

## Nc1ccc2c(c1Br)Cc1ccccc1-2
[2]
  IC50: 43.8 µM (active)

## COc1ccc(C(=O)NCC(c2ccc(F)cc2)N2CCOCC2)cc1S(=O)(=O)N1CCCC1 (stereo unspecified)
Cytochrome P450 2D6
  AC50: 15.8 µM (inconclusive)

## Cn1nc(C(F)(F)F)c(C(=O)Nc2ccc(F)cc2F)c1Sc1cccc(C(F)(F)F)c1
Cytochrome P450 2D6
  AC50: 20 µM (inconclusive)
Cytochrome P450 1A2
  AC50: 15.8 µM (inconclusive)

## CC1Cc2ccccc2N1C(=O)CNCCCN(C)C (stereo unspecified)
[2]
  IC50: 76.9 µM (active)

## Fc1ccc(Br)cc1C1C=C(c2ccc(Br)s2)Nc2ncnn21 (stereo unspecified)
[1]
  EC50: 4.65 µM (active)
Streptokinase A
  EC50: > 150 µM (not active)
Streptococcus
  EC50: 24.3 µM (active)

## CC(C)C[C@@H](N)C(=O)Nc1ccc2ccccc2c1
Cytochrome P450 2C19
  AC50: 2.51 µM (inconclusive)
Cytochrome P450 2D6
  AC50: 3.16 µM (inconclusive)
Cytochrome P450 3A4
  AC50: 2.51 µM (inconclusive)

## COc1ccc(CN(C)S(=O)(=O)c2ccc3c(c2)OCCO3)cc1
[1]
  EC50: > 150 µM (not active)
Streptokinase A
  EC50: > 150 µM (not active)
Streptococcus
  EC50: > 150 µM (not active)

## COc1ccc(NC2CCCN(C(=O)CCN3CCCC3=O)C2)cc1OC (stereo unspecified)
[2]
  IC50: 293 µM (active)

## COC(=O)C1C(O)=C(/C=N/c2ccc(N)cc2)C(=O)CC1(C)C (stereo unspecified)
[2]
  IC50: 40 µM (active)

## CNC(=O)c1sc(SC)cc1-c1ccc(Cl)cc1
Cytochrome P450 2D6
  AC50: 25.1 µM (inconclusive)

## Cc1sc2c(c1C)c(=O)n(-c1ccccc1)c1nnc(C)n21
Cytochrome P450 2C19
  AC50: 8.91 µM (inconclusive)

## CNc1ncnc2ccc(-c3ccccc3CN(C)C)cc12
Cytochrome P450 2C19
  AC50: 20 µM (inconclusive)

## CC(C)N1CCc2c(sc(NC(=O)CCS(=O)(=O)c3ccccc3)c2C#N)C1
[1]
  EC50: > 150 µM (not active)
Streptokinase A
  EC50: > 150 µM (not active)
Streptococcus
  EC50: > 150 µM (not active)

## NCCCCNS(=O)(=O)c1ccc2c(Cl)cccc2c1
Cytochrome P450 2D6
  AC50: 31.6 µM (inconclusive)
Cytochrome P450 1A2
  AC50: 39.8 µM (inconclusive)
Cytochrome P450 3A4
  AC50: 25.1 µM (inconclusive)

## CCOC(=O)CC(NC(=O)c1cccs1)c1ccc(OCC)cc1 (stereo unspecified)
Cytochrome P450 2D6
  AC50: 14.1 µM (inconclusive)

## O=[N+]([O-])c1cccc(-c2nc(-c3ccccc3)c(-c3cccs3)[nH]2)c1
Cytochrome P450 2D6
  AC50: 4.47 µM (inconclusive)

## O=C(/C=C/c1cccnc1)c1ccc(NC(=O)c2cccc(Br)c2)cc1
Cytochrome P450 2D6
  AC50: 2 µM (inconclusive)
Cytochrome P450 1A2
  AC50: 14.1 µM (inconclusive)

## COCCn1c(=O)c(-c2ccc(OC)cc2)nc2cnc(Nc3cccc(OC)c3)nc21
Cytochrome P450 1A2
  AC50: 10 µM (inconclusive)
Cytochrome P450 3A4
  AC50: 5.01 µM (inconclusive)
